Assay results as given in PubChem BioAssay (NCI).
Several values for one entry are separate records, joined by “and”; a condition that tells them apart may be missing. Identical values can stand only once.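 The compound was tested at five concentrations on cells cultured in 96-well plates, with a 48-hour exposure period. GI50 = concentration required for 50% inhibition of growth. The concentration for full growth arrest is given as TGI.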

Legend:
Experiment in all cases: NCI anticancer screen, dose series, 48 h
[1] = system: NCI-H460 lung
[2] = system: NCI/ADR-RES ovarian
[3] = system: SK-MEL-2 melanoma
[4] = system: LOX IMVI melanoma
[5] = system: OVCAR-8 ovarian
[6] = system: RPMI-8226 leukemia
[7] = system: CCRF-CEM leukemia
[8] = system: CAKI-1 renal
[9] = system: M14 melanoma
[10] = system: TK-10 renal

| Compound | GI50 [1] [µM] | TGI [1] | GI50 [2] [µM] | TGI [2] | GI50 [3] [µM] | TGI [3] [µM] | GI50 [4] [µM] | TGI [4] [µM] | GI50 [5] [µM] | TGI [5] | GI50 [6] [µM] | TGI [6] [µM] | GI50 [7] [µM] | TGI [7] [µM] | GI50 [8] [µM] | TGI [8] [µM] | GI50 [9] [µM] | TGI [9] | GI50 [10] [µM] | TGI [10] [µM] |
| --- | --- | --- | --- | --- | --- | --- | --- | --- | --- | --- | --- | --- | --- | --- | --- | --- | --- | --- | --- | --- |
| Cn1ccnc1C(=O)/C=C/c1ccc(C(=O)Nc2ccc(Cl)cc2)cc1 | 0.747 | 2 µM | 1.06 | > 33.3 µM | 7.68 | > 33.3 | 0.686 | 1.56 | 1.01 | > 33.3 µM | 0.431 | 1.35 | 0.783 | 2.71 | 1.17 | > 33.3 | 0.968 | 4.96 µM | 0.973 | 17.2 |
| CC1CC2(C)ON=C(c3ccccc3)N2c2ccccc2S1 (stereo not drawn) | 41.3 | – | 17.6 | 46.6 µM | – | – | 22 | 50.1 | 37.3 | – | 20.4 | 69.2 | 28.1 | 77.6 | 78.6 | – | 31.7 | 83.2 µM | – | – |
| CN(C)c1ccc(N2Cc3ccccc3OC3=C2C(=O)c2c(O)ccc(O)c2C3=O)cn1 | 1.28 | 3.67 µM | 0.284 | – | 0.541 | 1.49 | 0.16 | 0.48 | 0.268 | 1.26 µM | 0.235 | 0.797 | 0.102 | 0.815 | – | – | 0.241 | 0.713 µM | 0.348 | 0.908 |
| COc1ccc2nc(-c3cc(-c4cc(OC)c(OC)c(OC)c4)n[nH]3)[nH]c2c1 | 2.64 | 8.08 µM | 2.91 | > 100 µM | – | – | – | – | 1.15 | 3.2 µM | 0.643 | 2.53 | 1.29 | 4.12 | 1.79 | 5.64 | 1.66 | 4.31 µM | 2.21 | 7.58 |
| CCOc1c(Br)cc(C2C(C(=O)OC)=CN(C)C=C2C(=O)OC)cc1OC | 58.1 | > 100 µM | 43.6 | > 100 µM | – | – | 85.1 | > 100 | 68.1 | > 100 µM | 45.5 | > 100 | 40.1 | > 100 | 44.3 | > 100 | 64.1 | > 100 µM | > 100 | > 100 |
| CC(=O)N1N=C2/C(=C/c3ccccc3)CC(C)CC2C1c1ccccc1 (stereo not drawn) | 13 | 27.8 µM | 12.5 | 28.8 µM | 18.7 | 46.3 | 13.9 | 29.9 | 16.1 | 50.6 µM | 9.54 | 76.1 | 15.5 | 53.9 | 19.1 | 41.8 | – | – | 19.7 | 44.9 |
| Nc1nc(N)c(N=O)c(Nc2ccc(O)cc2)n1 | – | > 100 µM | – | > 50.4 µM | – | > 100 | – | > 100 | – | > 100 µM | – | > 68.2 | – | > 100 | – | > 76.3 | – | – | – | > 100 |
| CC(C)(C)NC(C1=CC(C)(C)c2ccccc2C1=O)c1ccccc1 (stereo not drawn) | 1.93 | 4.58 µM | 2.45 | 6.29 µM | 1.49 | 3.08 | 1.42 | 2.73 | 1.74 | 4.19 µM | – | – | 1.14 | 4.07 | 3.26 | 13.4 | 1.52 | 2.85 µM | 1.75 | 3.39 |
| COc1cc2c3c(n(CCCCOC(=O)C(F)(F)F)c(=O)c2cc1OC)-c1cc2c(cc1C3=O)OCO2 | – | > 100 µM | > 100 | > 100 µM | > 100 | > 100 | > 100 | > 100 | > 52.6 | > 100 µM | > 20.4 | > 100 | 5.01 | > 100 | > 21.8 | > 100 | – | – | > 100 | > 100 |
| O=c1cc(-c2cccc(C(F)(F)F)c2)[nH]c2cc3c(cc12)OCO3 | 0.353 | 4.08 µM and 11 µM | 0.251 | 2.14 µM and 0.829 µM | – | 3.34 | – | – | 0.482 | 21.5 µM and 18.5 µM | – | > 100 | – | – | – | > 100 | 0.41 | 50 µM and > 100 µM | 22.5 | > 100 |
| Oc1ccccc1-c1nn(CNc2cccc(Cl)c2)c(=S)o1 | 20.6 | > 100 µM | 0.371 | 40 µM | > 100 | > 100 | – | – | > 100 | > 100 µM | 15.3 | 38.5 | 3.63 | 27.3 | 65.4 | > 100 | 35.8 | > 100 µM | 13.1 | 86.3 |
| COc1ccc2c(c1)c(-c1ccc(-c3cn(S(=O)(=O)c4ccccc4)c4ccc(OC)cc34)s1)cn2S(=O)(=O)c1ccccc1 | > 100 | > 100 µM | > 100 | > 100 µM | > 100 | > 100 | > 100 | > 100 | – | – | > 100 | > 100 | > 100 | > 100 | > 100 | > 100 | > 100 | > 100 µM | > 100 | > 100 |
| Cc1nn(-c2nc3ccccc3s2)c(C)c1Oc1ccccc1O | 0.654 | 16.3 µM | 3.6 | 23.3 µM | – | – | 2.87 | 16.9 | 8.04 | 25.8 µM | 8.13 | 34.8 | 5.14 | 47.8 | 10.9 | 22.9 | 11.8 | 24.8 µM | 13.9 | 31.9 |
